US10800792B2, “Inhibitors of Bruton's tyrosine kinase and method of their use” (JANSSEN PHARMACEUTICA NV, priority 2015, dated 2020)

What follows are compounds tested against unphosphorylated-BTK kinase domain (UP-BTK), GST-tagged human BTK (389-659aa) (Homo sapiens (Human), UniProt Q06187) (assay: BTK kinase Lanthascreen binding assay). Conditions: Lanthascreen tracer competition, 60 minutes incubation; pIC50 = negative log of the IC50 in molar.
Procedure, shortened: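 Values are pIC50, i.e. negative log of IC50 in molar, derived from concentration–response fitting. Each compound competes with a fluorescently labelled tracer for the unphosphorylated kinase domain.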

Sequence of unphosphorylated-BTK kinase domain (UP-BTK), GST-tagged human BTK (389-659aa) (Q06187 389-659): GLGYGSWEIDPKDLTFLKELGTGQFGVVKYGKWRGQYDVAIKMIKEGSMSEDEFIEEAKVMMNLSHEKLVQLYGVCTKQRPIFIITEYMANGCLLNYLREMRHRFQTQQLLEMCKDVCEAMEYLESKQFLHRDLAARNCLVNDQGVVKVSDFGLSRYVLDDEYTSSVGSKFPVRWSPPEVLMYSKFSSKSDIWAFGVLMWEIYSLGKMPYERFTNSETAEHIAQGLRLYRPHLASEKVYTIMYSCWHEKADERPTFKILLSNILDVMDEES

Structure (SMILES) | BTK_I_binding pIC50
C=CC(=O)N1C[C@H](NC(=O)c2sc3nccc4c3c2NC(=O)N4c2cccc(-c3cccc(F)c3F)c2)C[C@H](OC)C1 [Example 679, N-((3R,5S)-1-Acryloyl-5-methoxypiperidin-3-yl)-5-(2′3′-difluoro-[1,1′-biphenyl]-3-yl)-4-oxo-4,5-dihydro-3H-1-thia-3,5,8-triazaacenaphthylene-2-carboxamide] | 7.8
C=CC(=O)N1CC[C@@H](NC(=O)c2sc3nccc4c3c2NC(=O)N4c2ncc(Oc3ccccc3)cn2)C1 [Example 749, (R)—N-(1-Acryloylpyrrolidin-3-yl)-4-oxo-5-(5-phenoxypyrimidin-2-yl)-4,5-dihydro-3H-1-thia-3,5,8-triazaacenaphthylene-2-carboxamide] | 7.3
Cc1cc(Oc2ccccc2)ccc1N1C(=O)Nc2c(C(=O)N[C@@H]3CCCN(C(=O)/C=C/CN4CCCC4)C3)sc3nccc1c23 [Example 867, (R,E)-5-(2-Methyl-4-phenoxyphenyl)-4-oxo-N-(1-(4-(pyrrolidin-1-yl)but-2-enoyl)piperidin-3-yl)-4,5-dihydro-3H-1-thia-3,5,8-triazaacenaphthylene-2-carboxamide] | 7.3
C=CC(=O)N1CCN(c2sc3nccc4c3c2NC(=O)N4c2ccc(Oc3ccccc3)cc2C)CC1 [Example 796, 2-(4-Acryloylpiperazin-1-yl)-5-(2-methyl-4-phenoxyphenyl)-3H-1-thia-3,5,8-triazaacenaphthylen-4(5H)-one] | 6.3

Same assay, conditions: Lanthascreen tracer competition, 60 minutes incubation; pIC50 = negative log of the IC50 in molar; read-out: BTK_I_binding pIC50 (converted)

Structure (SMILES) | IC50 [nM]
Cc1cc(Oc2ccccc2)ccc1N1C(=O)Nc2c(C(=O)N[C@@H]3CCCN(C(=O)/C=C/CN4C[C@@H]5OCCO[C@@H]5C4)C3)sc3nccc1c23 (single isomer, unassigned) [Example 684, 5-(*S)-(2-Methyl-4-phenoxyphenyl)-4-oxo-N—((R)-1-((E)-4-((4aR,7aS)-tetrahydro-2H-[1,4]dioxino[2,3-c]pyrrol-6(3H)-yl)but-2-enoyl)piperidin-3-yl)-4,5-dihydro-3H-1-thia-3,5,8-triazaacenaphthylene-2-carboxamide] | 31.6
Cc1cc(Oc2ccccc2)ccc1N1C(=O)Nc2c(C(=O)NC3CCCNC3)sc3nccc1c23 (stereo in doubt) [Example 869, (R)-5-(2-Methyl-4-phenoxyphenyl)-4-oxo-N-(piperidin-3-yl)-4,5-dihydro-3H-1-thia-3,5,8-triazaacenaphthylene-2-carboxamide] | 50.1

Same assay, conditions: pIC50 = negative log of the IC50 in molar; 60 minutes incubation, 50 nM Tracer 236

Structure (SMILES) | BTK_I_binding pIC50
N#C/C(=C\C1CC1)C(=O)N1CCC[C@@H](NC(=O)c2sc3nccc4c3c2NC(=O)N4c2ccc(Oc3ccccc3)cc2F)C1 [Example 79, (R,E)-N-(1-(2-Cyano-3-cyclopropylacryloyl)piperidin-3-yl)-5-(2-fluoro-4-phenoxyphenyl)-4-oxo-4,5-dihydro-3H-1-thia-3,5,8-triazaacenaphthylene-2-carboxamide] | 7.5
C=CC(=O)N1CC(O)[C@@H](NC(=O)c2sc3nccc4c3c2NC(=O)N4c2ccc(Oc3ccccc3)cc2C)C1 (stereo in doubt) [Example 50, N-((3S,4S)-1-Acryloyl-4-hydroxypyrrolidin-3-yl)-5-(2-methyl-4-phenoxyphenyl)-4-oxo-4,5-dihydro-3H-1-thia-3,5,8-triazaacenaphthylene-2-carboxamide] | 7.5
COC=C(C#N)C(=O)N1CCC[C@@H](NC(=O)c2sc3nccc4c3c2NC(=O)N4c2ccc(Oc3ccccc3)cc2C)C1 (mixture of isomers) [Example 231, (R,EZ)—N-(1-(2-Cyano-3-methoxyacryloyl)piperidin-3-yl)-5-(2-methyl-4-phenoxyphenyl)-4-oxo-4,5-dihydro-3H-1-thia-3,5,8-triazaacenaphthylene-2-carboxamide] | 6.8
COC(C)CC(=O)N1CCC[C@@H](NC(=O)c2sc3nccc4c3c2NC(=O)N4c2ccc(Oc3ccccc3)cc2C)C1 (stereo partly drawn) [Example 155, N-((3R)-1-(3-Methoxybutanoyl)piperidin-3-yl)-5-(2-methyl-4-phenoxyphenyl)-4-oxo-4,5-dihydro-3H-1-thia-3,5,8-triazaacenaphthylene-2-carboxamide] | 7.0

Same assay, conditions: unphosphorylated-BTK kinase domain, 50 nM Tracer 236, 60 minutes; pIC50 = negative log of the IC50 in molar

Structure (SMILES) | BTK_I_binding pIC50
O=C(N[C@@H]1CCCNC1)c1sc2nccc3c2c1NC(=O)N3c1cccc(Oc2ccccc2)c1 [Example 466, (R)-4-Oxo-5-(3-phenoxyphenyl)-N-(piperidin-3-yl)-4,5-dihydro-3H-1-thia-3,5,8-triazaacenaphthylene-2-carboxamide] | 6.7
Cc1cnc2sc(C(=O)N[C@@H]3CCCNC3)c3c2c1N(c1ccc(Oc2ccccc2)cc1)C(=O)N3 [Example 328, (R)-6-Methyl-4-oxo-5-(4-phenoxyphenyl)-N-(piperidin-3-yl)-4,5-dihydro-3H-1-thia-3,5,8-triazaacenaphthylene-2-carboxamide] | 5.7
Cc1cc(Oc2ccccc2)ccc1N1C(=O)Nc2c(C(=O)NC3(CO)CCOCC3)sc3nccc1c23 [Example 436, N-(4-(Hydroxymethyl)tetrahydro-2H-pyran-4-yl)-5-(*S)-(2-methyl-4-phenoxyphenyl)-4-oxo-4,5-dihydro-3H-1-thia-3,5,8-triazaacenaphthylene-2-carboxamide] | 7.3
C=CC(=O)N1CCC[C@@H](NC(=O)c2sc3nccc4c3c2NC(=O)N4c2ccc(Oc3ccccc3)c(C)c2)C1 [Example 536, (R)—N-(1-Acryloylpiperidin-3-yl)-5-(3-methyl-4-phenoxyphenyl)-4-oxo-4,5-dihydro-3H-1-thia-3,5,8-triazaacenaphthylene-2-carboxamide] | 7.5
O=C(NCC1CCCO1)c1sc2nccc3c2c1NC(=O)N3c1ccc(Oc2ccccc2)cc1 (stereo not shown) [Example 462, 4-Oxo-5-(4-phenoxyphenyl)-N-((tetrahydrofuran-2-yl)methyl)-4,5-dihydro-3H-1-thia-3,5,8-triazaacenaphthylene-2-carboxamide] | 6.4
Cc1cc(Oc2ccccc2)ccc1N1C(=O)Nc2c(C(=O)N[C@@H]3CCCN(C(=O)/C(C#N)=C/C(C)(C)C)C3)sc3nccc1c23 (single isomer, unassigned) [Example 398, (R,E)-N-(1-(2-Cyano-4,4-dimethylpent-2-enoyl)piperidin-3-yl)-5-(*R)-(2-methyl-4-phenoxyphenyl)-4-oxo-4,5-dihydro-3H-1-thia-3,5,8-triazaacenaphthylene-2-carboxamide] | 6.6
C=CC(=O)N1CC[C@@H](NC(=O)c2sc3nccc4c3c2NC(=O)N4c2ccc(C(C)C)cc2C)C1 [Example 445, (R)—N-(1-Acryloylpyrrolidin-3-yl)-5-(4-isopropyl-2-methylphenyl)-4-oxo-4,5-dihydro-3H-1-thia-3,5,8-triazaacenaphthylene-2-carboxamide] | 6.7
C=CC(=O)N1CCC[C@@H](NC(=O)c2sc3nccc4c3c2NC(=O)N4c2ccc(Oc3ccccc3)cn2)C1 [Example 513, (R)—N-(1-Acryloylpiperidin-3-yl)-4-oxo-5-(5-phenoxypyridin-2-yl)-4,5-dihydro-3H-1-thia-3,5,8-triazaacenaphthylene-2-carboxamide] | 8.2

Same assay, conditions: unphosphorylated-BTK kinase domain, 60 minutes incubation, 50 nM Tracer 236; pIC50 = negative log of the IC50 in molar

Structure (SMILES) | BTK_I_binding pIC50
CCC(=O)N1CCCC(NC(=O)c2sc3nccc4c3c2NC(=O)N4c2ccc(Oc3ccccc3)cc2C)C1 (stereo not shown) [Example 903, 5-(2-Methyl-4-phenoxyphenyl)-4-oxo-N-(1-propionylpiperidin-3-yl)-4,5-dihydro-3H-1-thia-3,5,8-triazaacenaphthylene-2-carboxamide] | 6.8
